From patent publication US6413517B1, “Identification of broadly reactive DR restricted epitopes” (Epimmune, Inc., priority 1997, dated 2002)
Where two headings read alike, the source gives them in different places. No end group written: not given here.

Assays:
DRB1*1501 (DR2w2b) = biological target: T1, DRB1*1501 (DR2w2b) (Homo sapiens, UniProt P01903+P01911); assay: biochemical; assay type: binding
T1 construct: expressed in transfected cells; host or cells: transfected fibroblasts L466.1

DRB1*1101 (DR5w11) = biological target: T2, DRB1*1101 (DR5w11) (Homo sapiens, UniProt P01903+P01911, A100R/A169T/A87E/I96F/K41T/L162R/M171V/P40S/Q125H/Q178H/Q39Y/Q99D/R42S/S66Y/T262R/V115G/W38E); assay: biochemical; assay type: binding
T2 construct: Epstein-Barr virus (EBV) transformed homozygous cell lines were used as sources; endogenous in cells; host or cells: SWEIG (EBV-transformed homozygous B cell line)

DRB1*0101 (DR1) = biological target: T3, DRB1*0101 (DR1) (Homo sapiens, UniProt P01903+P01911, A100R/D57E/F55L/F60I/F76Y/I96L/L162R/M171V/P40L/Q125E/R42F/V115G/Y59C); assay: biochemical; assay type: binding
T3 construct: Epstein-Barr virus (EBV) transformed homozygous cell lines were used as sources; endogenous in cells; host or cells: LG2 (EBV-transformed homozygous B cell line)

DRB1*0405 (DR4w15) = biological target: T4, DRB1*0405 (DR4w15) (Homo sapiens, UniProt P01903+P01911, A100R/A169T/D86S/F76Y/I96L/K127E/L162R/M171V/N62H/P40V/Q125Y/R42H/S133A/S149N/S66Y/V115G/V209L/W38E); assay: biochemical; assay type: binding
T4 construct: Epstein-Barr virus (EBV) transformed homozygous cell lines were used as sources; endogenous in cells; host or cells: KT3 (EBV-transformed homozygous B cell line)

DRB1*0701 (DR7) = biological target: T5, DRB1*0701 (DR7) (Homo sapiens, UniProt P01903+P01911, A100R/A102G/A103Q/D57E/D86V/E43K/F76Y/K127E/L162R/M171V/P40G/Q125H/Q99D/R33Q/R42Y/R54Q/S133A/S66F/T210M/V115G/Y107V/Y59L/Y89S); assay: biochemical; assay type: binding
T5 construct: Epstein-Barr virus (EBV) transformed homozygous cell lines were used as sources; endogenous in cells; host or cells: PITOUT (EBV-transformed homozygous B cell line)

DRB1*0301 (DR3w17) [1] = biological target: T6, DRB1*0301 (DR3w17) (Homo sapiens, UniProt P01903+P01911, A100K/A102G/A103R/A169T/F55Y/I96L/K41T/L162R/M171V/P40S/Q125H/Q178H/Q39Y/R42S/S66N/T106N/T262R/W38E/Y61H); conditions: read-out: Binding Capacity (IC 50% nM) Other Alleles DR3
DRB1*0301 (DR3w17) [2] = biological target: T6, DRB1*0301 (DR3w17); assay: biochemical; conditions: Binding Capacity (IC50% nM) DR3
DRB1*0901 (DR9) = biological target: T7, DRB1*0901 (DR9) (Homo sapiens, UniProt P01903+P01911, A100R/A103E/D57H/D86V/F55Y/F60I/F76Y/I96F/K127E/L162R/M171V/P40D/Q125H/Q99R/R33Q/R42F/S133A/S66N/T210M/V115G/W38K/Y107V/Y59G/Y89S); assay: biochemical; assay type: binding
T7 construct: Epstein-Barr virus (EBV) transformed homozygous cell lines were used as sources; endogenous in cells

DRB1*1201 (DR5w12) = biological target: T8, DRB1*1201 (DR5w12) (Homo sapiens, UniProt P01903+P01911, A100R/A169T/D57E/D86V/F55L/H45Y/K41T/L162R/M171V/P40S/Q125H/Q178H/Q39Y/Q99D/R42G/S66L/T262R/V114A/V67L/W38E/Y59H/Y61H/Y89S); assay: biochemical; assay type: binding
T8 construct: Epstein-Barr virus (EBV) transformed homozygous cell lines were used as sources; endogenous in cells; host or cells: Herluf (EBV-transformed homozygous B cell line)

DRB1*1302 (DR6w19) = biological target: T9, DRB1*1302 (DR6w19) (Homo sapiens, UniProt P01903+P01911, A100E/A169T/K41T/L162R/M171V/P40S/Q125H/Q178H/Q39Y/Q99D/R42S/S66N/T262R/V115G/W38E/Y61H); assay: biochemical; assay type: binding
T9 construct: Epstein-Barr virus (EBV) transformed homozygous cell lines were used as sources; the source of Class II molecules the EBV transformed homozygous cell line H0301; endogenous in cells; host or cells: H0301 (EBV-transformed homozygous B cell line)

DRB1*0802 (DR8w2) = biological target: T10, DRB1*0802 (DR8w2) (Homo sapiens, UniProt P01903+P01911, A100R/A103L/A169T/F76Y/H45Y/I96F/K41T/L162R/M171V/P40S/Q125H/Q178H/Q39Y/Q99D/R218S/R42G/S66Y/V115G/W38E); assay: biochemical; assay type: binding
T10 construct: Epstein-Barr virus (EBV) transformed homozygous cell lines were used as sources; endogenous in cells; host or cells: OLL (EBV-transformed homozygous B cell line)

DRB1*0401 (DR4w4) = biological target: T11, DRB1*0401 (DR4w4) (Homo sapiens, UniProt P01903+P01911, A100K/A169T/F76Y/I96L/K127E/L162R/M171V/N62H/P40V/Q125Y/R42H/S133A/S149N/S66Y/V115G/V209L/W38E); assay: biochemical; assay type: binding
T11 construct: Epstein-Barr virus (EBV) transformed homozygous cell lines were used as sources; endogenous in cells; host or cells: PREISS (EBV-transformed homozygous B cell line)

DRB5*0101 (DR2w2a) = biological target: T12, DRB5*0101 (DR2w2a) (Homo sapiens, UniProt P01903+Q30154); assay: biochemical; assay type: binding
T12 construct: Epstein-Barr virus (EBV) transformed homozygous cell lines were used as sources; endogenous in cells; host or cells: GM3107 (EBV-transformed homozygous B cell line)

[3] = Binding Capacity (IC 50% nM) Other Alleles DR2w2b
[4] = Binding Capacity (IC50% nM) DR5w11
[5] = read-out: Binding Capacity (IC 50% nM) Other Alleles DR5w11
[6] = Binding Capacity (IC 50% nM) DR1,4,7 DRB1
[7] = read-out: Binding Capacity (IC 50% nM) Other Alleles DR4w15
[8] = Binding Capacity (IC50% nM) DR5w12
[9] = read-out: Binding Capacity (IC 50% nM) Other Alleles DR5w12
[10] = Binding Capacity (IC50% nM) DR8w2
[11] = read-out: Binding Capacity (IC 50% nM) Other Alleles DR8w2
[12] = Binding Capacity (IC50% nM) DR2w2a
[13] = read-out: Binding Capacity (IC 50% nM) Other Alleles DR2w2a
[14] = Binding Capacity (IC50% nM) DR7
[15] = read-out: Binding Capacity (IC 50% nM) DR1,4,7 DR7
[16] = read-out: Binding Capacity (IC 50% nM) Other Alleles DR9
[17] = Binding Capacity (IC50% nM) DR6w19
[18] = read-out: Binding Capacity (IC 50% nM) Other Alleles DR6w19
[19] = Binding Capacity (IC 50% nM) DR1,4,7 DR4w4

T2 sequence (P01903 26-254, other chains not shown): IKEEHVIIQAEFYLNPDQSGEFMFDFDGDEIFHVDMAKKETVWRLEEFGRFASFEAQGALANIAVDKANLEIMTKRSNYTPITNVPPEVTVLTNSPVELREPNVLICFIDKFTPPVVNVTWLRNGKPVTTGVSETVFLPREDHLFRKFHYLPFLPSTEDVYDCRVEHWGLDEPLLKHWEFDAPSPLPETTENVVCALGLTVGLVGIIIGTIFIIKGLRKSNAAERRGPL

Compound	IC50 (DRB1*1501 (DR2w2b); [3]) [nM]	IC50 (DRB1*1101 (DR5w11); [4]) [nM]	IC50 (DRB1*1101 (DR5w11); [5]) [nM]	IC50 (DRB1*0101 (DR1); [6]) [nM]	IC50 (DRB1*0405 (DR4w15); [7]) [nM]	IC50 (DRB1*0301 (DR3w17) [1]) [nM]	IC50 (DRB1*0301 (DR3w17) [2]) [nM]	IC50 (DRB1*1201 (DR5w12); [8]) [nM]	IC50 (DRB1*1201 (DR5w12); [9]) [nM]	IC50 (DRB1*0802 (DR8w2); [10]) [nM]	IC50 (DRB1*0802 (DR8w2); [11]) [nM]	IC50 (DRB5*0101 (DR2w2a); [12]) [nM]	IC50 (DRB5*0101 (DR2w2a); [13]) [nM]	IC50 (DRB1*0701 (DR7); [14]) [nM]	IC50 (DRB1*0701 (DR7); [15]) [nM]	IC50 (DRB1*0901 (DR9); [16]) [nM]	IC50 (DRB1*1302 (DR6w19); [17]) [nM]	IC50 (DRB1*1302 (DR6w19); [18]) [nM]	IC50 (DRB1*0401 (DR4w4); [19]) [nM]	further results
CC(C)C[C@H](NC(=O)CNC(=O)[C@H](C)NC(=O)[C@@H](N)CC(C)C)C(=O)N[C@@H](CC(C)C)C(=O)NCC(=O)N[C@@H](CC(N)=O)C(=O)N[C@H](C(=O)N[C@@H](CO)C(=O)N[C@H](C(=O)N[C@H](C(=O)N[C@@H](CC(C)C)C(=O)N[C@@H](CC(C)C)C(=O)NCC(=O)NCC(=O)O)C(C)C)[C@@H](C)O)C(C)C [Peptide F107.10]	< 1000	> 10000	> 1000	< 1000	> 1000	> 1000	> 10000	> 10000	> 1000	> 10000	> 1000	> 10000	> 1000	–	–	–	–	–	–	IC50 (DRB1*0701 (DR7); Binding Capacity (IC 50% nM) DR1,4,7 DR7): < 1000 nM; IC50 (DRB1*0901 (DR9); Binding Capacity (IC 50% nM) Other Alleles DR9): < 1000 nM; IC50 (DRB1*1302 (DR6w19); Binding Capacity (IC 50% nM) Other Alleles DR6w19): < 1000 nM; IC50 (DRB1*0401 (DR4w4); read-out: Binding Capacity (IC 50% nM) DR1,4,7 DR4w4): > 1000 nM
WLFPRFKFVWVTYASW [Peptide 1136.44.01]	–	4000	> 1000	< 1000	> 1000	> 1000	> 10000	> 10000	> 1000	6360	> 1000	> 10000	> 1000	> 10000	> 1000	> 1000	> 10000	> 1000	< 1000	IC50 (DRB1*1501 (DR2w2b); Binding Capacity (IC50% nM) DR2w2b): > 10000 nM; IC50 (DRB1*1501 (DR2w2b); read-out: Binding Capacity (IC 50% nM) Other Alleles DR2w2b): > 1000 nM; IC50 (DRB1*0101 (DR1); Binding Capacity (IC50% nM) DR1): 526 nM; IC50 (DRB1*0405 (DR4w15); Binding Capacity (IC50% nM) DR4w15): 6550 nM; IC50 (DRB1*0901 (DR9); Binding Capacity (IC50% nM) DR9): > 10000 nM; IC50 (DRB1*0401 (DR4w4); Binding Capacity (IC50% nM) DR4w4): 780 nM
CC[C@H](C)[C@H](NC(=O)[C@H](Cc1ccccc1)NC(=O)[C@H](Cc1ccccc1)NC(=O)[C@H](CO)NC(=O)[C@H](C)NC(=O)[C@@H]1CCCN1C(=O)[C@H](Cc1ccccc1)NC(=O)[C@@H](NC(=O)[C@@H](N)C(C)C)C(C)C)C(=O)N[C@@H](CCCCN)C(=O)N[C@@H](CC(C)C)C(=O)N1CCC[C@H]1C(=O)N[C@H](C(=O)N[C@H](C(=O)N[C@@H](CC(C)C)C(=O)N[C@@H](C)C(=O)O)[C@@H](C)CC)[C@@H](C)CC [Peptide 1136.11]	< 1000	–	–	< 1000	–	> 1000	> 10000	> 10000	> 1000	–	–	–	–	9610	> 1000	> 1000	> 10000	> 1000	< 1000	IC50 (DRB1*1101 (DR5w11); Binding Capacity (IC 50% nM) Other Alleles DR5w11): < 1000 nM; IC50 (DRB1*0405 (DR4w15); Binding Capacity (IC 50% nM) Other Alleles DR4w15): < 1000 nM; IC50 (DRB1*0802 (DR8w2); Binding Capacity (IC 50% nM) Other Alleles DR8w2): < 1000 nM; IC50 (DRB5*0101 (DR2w2a); Binding Capacity (IC 50% nM) Other Alleles DR2w2a): < 1000 nM
